Marks after values point to notes of the source that are not given here.
Tests used:
[1] = ASTX727 Phase 1 dose escalation study: plasma decitabine pharmacokinetics (AUC); type: in vivo, human; details: for AUC(0-t): human, plasma
Method: The ASTX727 Phase 1 study was a dose escalation designed to establish the recommended doses of cedazuridine and decitabine likely to achieve AUC equivalence with standard dose decitabine IV (decitabine 20 mg/m^2 IV). FIG. 1 provides an overview of the study design. In Cycle 1, each patient received a cohort-defined dose of oral decitabine on day −3, a 1-h intravenous infusion of decitabine 20 mg/m^2 on day 1, and cohort-defined doses of oral decitabine plus cedazuridine on days 2-5. In Cycles 2 and beyond, the oral decitabine and cedazuridine were given on days 1-5. The dose of cedazuridine was escalated first and decitabine was escalated once CDA inhibition by cedazuridine approached the maximum effect. Only one drug was escalated per cohort. Fixed doses were given without adjustment for bodyweight or body surface area. Days −3, 1, 2, and 5 for decitabine included a full-day pharmacokinetic analysis. The starting dose was 20 mg for oral decitabine and 40 mg for cedazuridine (a human equivalent dose with approximately 100 times greater safety margin than the no-observed adverse effect level in cynomolgus monkeys). […] Dose-limiting toxicity was defined as a grade 4 hematologic toxicity or grade 3 lasting more than 14 days and unrelated to the underlying disease. […] Dose escalation for patients who previously received a lower dose was allowed at the discretion of the investigator if the patient had tolerated the originally assigned doses.
The pharmacokinetic profile of decitabine was characterized through analysis of plasma treated with EDTA (edetic acid) by validated liquid chromatography-tandem mass spectrometry, with tetrahydrouridine (Santa Cruz Biotechnology, Dallas, TX) for stabilization and with a linear assay range of 0.5-100 ng/mL for decitabine. Serial plasma samples (from before dose administration until 24 h after administration) were collected on days −3, 1, 2, and 5 (also immediately before dose administration on days 3 and 4) during the first cycle. Specifically, pharmacokinetic samples were obtained before dose administration and 0.25 h, 0.5 h, 1.0 h (for IV only 1.083 h), 1.5 h, 2 h, 3 h, 4 h, 6 h, 8 h, and 24 h after the dose.

[2] = ASTX727 Phase 2 randomized cross over dose confirmation: plasma decitabine 5-day AUC, oral vs IV; type: in vivo; details: human, read-out: Decitabine 5-day AUC0-t, IV Geo. LSM
MDS and CMML patients = experiment: Phase 2 safety: related adverse events Grade ≥3 in ≥5% of patients; type: in vivo, human; details: Phase 2, Cycle 1 or 2; IV DEC N = 75, ASTX727 N = 78
Method: The ASTX727 Phase 2 study was a randomized cross over design of decitabine 20 mg/m^2 IV daily (for 5 days) vs. oral decitabine/cedazuridine once daily (for 5 days) in Cycle 1 with patients crossing over to the other drug in Cycle 2 (See FIG. 3). From Cycle 3 onward, all patients continued on oral decitabine/cedazuridine once daily (for 5 days), each cycle every 28 days, until progression.
Changes in DNA methylation after treatment were expressed as relative change (%), calculated as: 100×([methylation on a given post-treatment day]−[baseline methylation]. Adverse event assessments through physical examinations and laboratory monitoring (haematology, metabolic profile, and liver enzymes) were done before treatment on day 1 of each cycle (weekly for haematology in the first two cycles). While on treatment, patients were assessed for adverse events and clinical response, including haematology, metabolic profile, liver enzymes, directed physical examinations, vital signs, transfusion records, and dosing records. Once off treatment, patients were followed up for survival and transformation to acute myeloid leukemia. Dose reduction or delays were permitted at the investigators' discretion to allow for recovery from drug-related myelosuppression.

[3] = Phase 3 randomized cross over study: 5-day decitabine AUC equivalence, oral ASTX727 vs IV decitabine; type: in vivo; details: human, plasma, 20 mg/m2; Phase 3 primary analysis, paired population N=123; IV decitabine 20 mg/m^2; read-out: Decitabine 5-day AUC0-24, IV DEC Geo. LSM
Source text: The Primary Endpoint PK Analysis Set is used to calculate decitabine 5-day cumulative AUC0-t exposures after administration of the solid dosage form. The following assumptions are used: • 1) Steady state is reached on Day 2 of dosing with the solid dosage form; • 2) Based on steady state achievement on Day 2, decitabine AUC0-t from Day 2 and Day 5 is representative of daily AUC0-t on Days 2 through Day 5 in a putative 5-day dosing with the solid dosage form.
Therefore, to calculate total 5-day oral decitabine AUC0-t exposures using PK data from 3 days sequential PK sampling, Day 1 AUC0-t (first solid dosage form dose) is added to (Day 2 AUC0-t+Day 5 AUC0-t)×2. If AUC0-t on Day 2 is not available, it is replaced by AUC0-t on Day 5; the converse is also true.
If AUC0-t on Day 1 is not available, it is replaced by AUC0-t on Day 5; the converse is also true. Note that t=24 hrs, so AUC0-t is AUC0-24.
Phase 3 was a randomized cross over design where MDS and CMML patients eligible to receive decitabine were randomized to Sequence A where they received ASTX727 in Cycle 1 then IV decitabine in Cycle 2, or Sequence B with the reverse order. All patients received ASTX727 from Cycle 3 onwards to assess long term efficacy and safety. 118 evaluable patients were needed to show AUC equivalence between oral and IV administrations. […]

With `Nc1ncn([C@H]2C[C@H](O)[C@@H](CO)O2)c(=O)n1` [IV DEC, 5-aza-2′-deoxycytidine] the “5-days Total AUC0-t, IV (N = 41), geometric mean” value ([1]; IV decitabine 20 mg/m^2, total IV population of all cohorts (N = 41)) was 821^d h · ng/ml, the AUC(0-t) ([1]; iv, 20 mg/m2, Cohort 1, N=5 (extreme outlier excluded), IV decitabine 20 mg/m^2, day 1, read-out: AUC0-t by day, IV D1, Geometric Mean (gCV %)) was 138 ng·h/mL and the AUC(0-t) ([1]; iv, 20 mg/m2, Cohort 2, N=6, IV decitabine 20 mg/m^2, day 1, read-out: AUC0-t by day, IV D1, Geometric Mean (gCV %)) was 170 ng·h/mL. The AUC(0-t) ([1]; iv, 20 mg/m2, Cohort 3, N=6, IV decitabine 20 mg/m^2, day 1, read-out: AUC0-t by day, IV D1, Geometric Mean (gCV %)) was 192 ng·h/mL, the AUC(0-t) ([1]; iv, 20 mg/m2, Cohort 4, N=6, IV decitabine 20 mg/m^2, day 1, read-out: AUC0-t by day, IV D1, Geometric Mean (gCV %)) was 153 ng·h/mL and the AUC(0-t) ([1]; iv, 20 mg/m2, Cohort 5, IV decitabine 20 mg/m^2, day 1, IV data from 18 patients (one extreme outlier excluded), read-out: AUC0-t by day, IV D1, Geometric Mean (gCV %)) was 166 ng·h/mL. For the same compound, the AUC(0-t) ([1]; iv, 20 mg/m^2, Cohort 1, N=6, IV decitabine 20 mg/m^2 1-h infusion, day 1, read-out: AUC0-t by day, IV D1, Geometric Mean (gCV %)) was 159 ng·h/mL, the AUC(0-t) ([1]; po, 20 mg, Cohort 1, N=5 (extreme outlier excluded), oral DEC 20 mg alone, day −3, read-out: AUC0-t by day, D −3 (DEC alone), Geometric Mean (gCV %)) was 7.9 ng·h/mL and the AUC(0-t) ([1]; po, 20 mg, Cohort 1, N=6, oral DEC 20 mg alone, day −3, plasma decitabine, read-out: AUC0-t by day, D −3 (DEC alone), Geometric Mean (gCV %)) was 10.7 ng·h/mL. It also gave an AUC(0-t) ([1]; po, 20 mg, Cohort 2, N=6, oral DEC 20 mg alone, day −3, read-out: AUC0-t by day, D −3 (DEC alone), Geometric Mean (gCV %)) of 7.49 ng·h/mL, an AUC(0-t) ([1]; po, 20 mg, Cohort 3, N=6, oral DEC 20 mg alone, day −3, read-out: AUC0-t by day, D −3 (DEC alone), Geometric Mean (gCV %)) of 7.9 ng·h/mL and an AUC(0-t) ([1]; po, 30 mg, Cohort 5, N=19, oral DEC 30 mg alone, day −3, read-out: AUC0-t by day, D −3 (DEC alone), Geometric Mean (gCV %)) of 15.3 ng·h/mL. The AUC(0-t) ([1]; po, 40 mg, Cohort 4, N=6, oral DEC 40 mg alone, day −3, read-out: AUC0-t by day, D −3 (DEC alone), Geometric Mean (gCV %)) was 29.8 ng·h/mL, the AUC(0-t) ([2]; 20 mg/m^2, Phase 2 FDC tablet stage, N=24, 20 mg/m^2 IV infusion (1 h) of decitabine) was 745 ng·h/mL and the AUC(0-t) ([2]; 20 mg/m^2, Phase 2 capsule stage, N=40, 20 mg/m^2 IV infusion (1 h) of decitabine) was 803 ng·h/mL. For the same compound, the “Anemia, related AE Grade ≥3” value (MDS and CMML patients) was 4 (5.3%) n (%), the “Any Grade ≥3 Related AEs” value (MDS and CMML patients) was 24 (32%) n (%) and the “Febrile Neutropenia, related AE Grade ≥3” value (MDS and CMML patients) was 4 (5.3%) n (%). The “Leukopenia, related AE Grade ≥3” value (MDS and CMML patients) was 6 (8.0%) n (%), the “Neutropenia, related AE Grade ≥3” value (MDS and CMML patients) was 16 (21.3%) n (%) and the “Thrombocytopenia, related AE Grade ≥3” value (MDS and CMML patients) was 11 (14.7%) n (%). It also gave an AUC(0-t) [3] of 865 ng·h/mL.

Reference: patent US11963971B2, “Combination decitabine and cedazuridine solid oral dosage forms” (Otsuka Pharmaceutical Co., Ltd., priority 2020, dated 2024)
